According to patent US20190030053A1, “COMPOSITION FOR INCREASING EXPRESSION OF PGC-1alpha” (BENEBIOSIS CO., LTD., priority 2016, published 2019):

Key:
[1] = system: ob mouse (C57BL/6J-ob/ob) models; test: Topical fat removal by meso roller administration in ob mouse models; format: in vivo; details: 0.1 M SL, meso roller on day 0 and day 4, observed on day 7
Description: In addition, in the ob mouse (C57BL/6J-ob/ob) models fed with a high-fat diet without SL treatment, the topical fat removal effect by SL (3′-SL & 6′-SL) administration using a meso roller (0.5 mm, INTO MR, Intomedi Inc.) was investigated. Specifically, the hairs on the dorsal side of the […] were shaved, and 0.1 M SL in the saline buffer was applied to the skin, and was absorbed into the skin by rubbing with the meso roller. The control group was tested by the same method except that the buffer was used without SL. […] In FIG. 15, 3′-SL, 6′-SL, and CTL represent the 3′-SL administration group, the 6′-SL administration group, and the control group, respectively. After feeding with a high-fat diet for 10 weeks, SL (3′-SL & 6′-SL) compositions were topically administered on day 0 and day 4 using the meso roller, and then dermoscopy observation was conducted on day 7. The observation results are shown.

PGC-1α and related genes = test: Gene expression in brain and hippocampus of Parkinson's disease models; format: in vivo, rat; details: 6-OHDA SD rats, oral 0.1 mg/kg/day
Text: In order to investigate the changes in gene expression and behavior improvement by the treatment with SL (3′-SL & 6′-SL) compositions in Parkinson's brain disease models, 13-week-old normal SD rats and Parkinson's brain disease models were purchased from Central Lab Animal (Korea). Water was freely accessible, and a commercially available pellet feed (Dooyeul Biotech, Korea) was given for one week. At 14 weeks of age, the SD rats were divided into four groups (composed of 8 animals per group): Eight 14-week-old male SD rats (normal rats; initial body weight, average 355.6±32.3 g) treated with a normal diet were used for a control group. […]
Sialyllactose or DW was orally administered daily. […] The dietary intake and body weight change were measured every 5 days. […]
The gene expression changes by the treatment with SL (3′-SL & 6′-SL) compositions were quantitatively compared in two main organs (brain and hippocampus) associated with bran diseases. RNA was extracted by TRIzol agent (Invitrogen). cDNA was synthesized by using RNA, which has been extracted as above and quantified, and a reverse transcription system (Promega, USA). The expression patterns of PGC-1α and related genes were measured by using pre-designed primers and probes (Applied Biosystems; PGC-1α, Mm00447181_m1, GAPDH, and Mm99999915_q1) for the synthesized cDNA and analysis targets (Fndc5, PGC-1α, Erra, UCP1, BDNF, SOD2, and GPX1). […]

telomerase = test: Telomerase activity (TRAP) in vivo, aorta of arteriosclerosis models (ApoE−/−); set-up: species or system mouse; details: ApoE−/− mice, high-fat diet, oral 0.1 mg/kg/day, 6 weeks
Text: In order to investigate the aging-related chronic disease preventing effect through the control of telomerase functions and DNA damage by the treatment with SL (3′-SL & 6′-SL) compositions in arteriosclerosis models, two types of 24-week-old male model mice (PGC-1α^+/+ApoE^−/−) were randomly grouped into three different dietary treatment groups (8 animals per group) below, and the diets were maintained for 6 weeks (a total of 24 animals): • Control group: Arteriosclerosis models fed with a high-fat diet (Rodent Diet with 60 kcal % fat) (8 animals) • 3′-SL administration group: Arteriosclerosis models treated with 3′-sialyllactose (3′-SL, Sigma) (oral administration of 0.1 mg per kg of mouse weight per day) in addition to the high-fat diet group (8 animals) • 6′-SL administration group: Arteriosclerosis models treated with 6′-sialyllactose (6′-SL, Sigma) (oral administration of 0.1 mg per kg of mouse weight per day) in addition to the high-fat diet group (8 animals)
In FIG. 20, the telomerase activity was measured using TRAP protocol (Wright et al., 1995). […] The fluorescence of the thus obtained TRAP product was measured using a fluorescent plate reader to quantify telomerase activity. Relative telomerase activity was normalized by the ratio of native […] to sulforhodamine (internal control standard), expressed as a percentage. […]

CC(=O)N[C@H]1[C@H]([C@H](O)[C@H](O)CO)O[C@@](OC[C@H]2O[C@@H](O[C@H]3[C@H](O)[C@@H](O)[C@H](O)O[C@@H]3CO)[C@H](O)[C@@H](O)[C@H]2O)(C(=O)O)C[C@@H]1O [6′-SL, α-NeuNAc-(2→6)-β-D-Gal-(1→4)-D-Glc]
topical fat removal (dermoscopy) vs negative control portion [1]: topical fat was removed
expression levels of PGC-1α and related genes vs SL non-administration (Parkinson's disease model) group (PGC-1α and related genes): very high
expression levels of PGC-1α and related genes vs normal control group (PGC-1α and related genes): somewhat lower
telomerase activity in aorta sample (in vivo) (telomerase): increased telomerase activity

CC(=O)N[C@H]1[C@H]([C@H](O)[C@H](O)CO)O[C@@](O[C@H]2[C@@H](O)[C@@H](CO)O[C@@H](O[C@H]3[C@H](O)[C@@H](O)C(O)O[C@@H]3CO)[C@@H]2O)(C(=O)O)C[C@@H]1O (stereo partly drawn) [3′-SL, α-NeuNAc-(2→3)-β-D-Gal-(1→4)-D-Glc]
topical fat removal (dermoscopy) vs negative control portion [1]: relatively low compared with 6′-SL
expression levels of PGC-1α and related genes vs SL non-administration (Parkinson's disease model) group (PGC-1α and related genes): relatively low compared with 6′-SL
telomerase activity in aorta sample (in vivo) (telomerase): increased telomerase activity
